Reference: the supplement of paper PMC10307832

Columns and labels:
Test in all cases: relative viability (nuclei count vs DMSO), 5 days (fraction); higher = more cells survive
[1] = compound: CC1=CC(=CC=C1)NC2=NC(=CS2)C3=CC=NC=C3 + Cc1cc(Nc2cc(N3CCN(C)CC3)nc(Sc3ccc(NC(=O)C4CC4)cc3)n2)n[nH]1 [Tozasertib] (partner 0.1 µM)
Outline: (§1)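 Relative viability is defined as nuclei in treated wells over nuclei in vehicle wells. Duplicate plates were run and medians reported. Lung cancer cell lines in 1536-well plates were dosed by pin tool one day after seeding, with one drug or with a fixed anchor-drug dose plus five library-drug doses (not always all listed) in √10 steps, and nuclei were counted after 5 days.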

[2] = compound: Cc1ccc(NC(=O)c2ccc(CN3CCN(C)CC3)cc2)cc1Nc1nc(-c2cccnc2)cs1 [Masitinib] + CC(C)C[C@H](NC(=O)[C@H](Cc1ccccc1)NC(=O)c1cnccn1)B(O)O [Bortezomib] (partner 0.002 µM)
Outline: as §1

[3] = compound: Cc1ccc(NC(=O)c2ccc(CN3CCN(C)CC3)cc2)cc1Nc1nc(-c2cccnc2)cs1 [Masitinib] + COc1cc2c(Oc3ccc(NC(=O)C4(C(=O)Nc5ccc(F)cc5)CC4)cc3F)ccnc2cc1OCCCN1CCOCC1 [Foretinib] (partner 0.25 µM)
Outline: as §1

[4] = compound: Cc1ccc(NC(=O)c2ccc(CN3CCN(C)CC3)cc2)cc1Nc1nc(-c2cccnc2)cs1 [Masitinib] + C[C@]1(O)C[C@@H](c2nc(-c3ccc4ccc(-c5ccccc5)nc4c3)c3c(N)nccn32)C1 [Linsitinib] (partner 1 µM)
Outline: as §1

ChaGo-K-1
relative viability ([1]; first compound 0.08 µM): 0.227 | relative viability ([1]; first compound 0.253 µM): 0.241 | relative viability ([1]; first compound 0.8 µM): 0.241 | relative viability ([1]; first compound 2.53 µM): 0.235 | relative viability ([1]; first compound 8 µM): 0.231 | relative viability ([2]; first compound 0.01 µM): 1.04 | relative viability ([2]; first compound 0.03162 µM): 1.05 | relative viability ([2]; first compound 0.1 µM): 1.35 | relative viability ([2]; first compound 0.3162 µM): 1.12 | relative viability ([2]; first compound 1 µM): 0.962 | relative viability ([3]; first compound 0.01 µM): 0.961 | relative viability ([3]; first compound 0.03162 µM): 0.863 | relative viability ([3]; first compound 0.1 µM): 0.924 | relative viability ([3]; first compound 0.3162 µM): 0.967 | relative viability ([3]; first compound 1 µM): 0.907

EBC-1
relative viability ([2]; first compound 0.01 µM): 0.493 | relative viability ([2]; first compound 0.03162 µM): 0.518 | relative viability ([2]; first compound 0.1 µM): 0.514 | relative viability ([2]; first compound 0.3162 µM): 0.479 | relative viability ([2]; first compound 1 µM): 0.573 | relative viability ([3]; first compound 0.01 µM): 0.112 | relative viability ([3]; first compound 0.03162 µM): 0.096 | relative viability ([3]; first compound 0.1 µM): 0.108 | relative viability ([3]; first compound 0.3162 µM): 0.0908 | relative viability ([3]; first compound 1 µM): 0.126 | relative viability ([4]; first compound 0.01 µM): 0.685 | relative viability ([4]; first compound 0.03162 µM): 0.753 | relative viability ([4]; first compound 0.1 µM): 1.21 | relative viability ([4]; first compound 0.3162 µM): 0.857 | relative viability ([4]; first compound 1 µM): 0.588

EKVX
relative viability ([1]; first compound 0.08 µM): 0.45 | relative viability ([1]; first compound 0.253 µM): 0.395 | relative viability ([1]; first compound 0.8 µM): 0.36 | relative viability ([1]; first compound 2.53 µM): 0.384 | relative viability ([1]; first compound 8 µM): 0.294 | relative viability ([2]; first compound 0.03162 µM): 1.04 | relative viability ([2]; first compound 0.1 µM): 1.05 | relative viability ([2]; first compound 0.3162 µM): 0.444 | relative viability ([2]; first compound 1 µM): 0.671 | relative viability ([3]; first compound 0.03162 µM): 0.663 | relative viability ([3]; first compound 0.1 µM): 0.53 | relative viability ([3]; first compound 0.3162 µM): 0.458 | relative viability ([3]; first compound 1 µM): 0.68 | relative viability ([4]; first compound 0.03162 µM): 0.87 | relative viability ([4]; first compound 0.1 µM): 0.876 | relative viability ([4]; first compound 0.3162 µM): 0.881 | relative viability ([4]; first compound 1 µM): 1.06

EMC-BAC-2
relative viability ([1]; first compound 0.08 µM): 0.261 | relative viability ([1]; first compound 0.253 µM): 0.286 | relative viability ([1]; first compound 0.8 µM): 0.287 | relative viability ([1]; first compound 2.53 µM): 0.285 | relative viability ([1]; first compound 8 µM): 0.323 | relative viability ([2]; first compound 0.01 µM): 0.942 | relative viability ([2]; first compound 0.03162 µM): 1.04 | relative viability ([2]; first compound 0.1 µM): 0.974 | relative viability ([2]; first compound 0.3162 µM): 1.15 | relative viability ([2]; first compound 1 µM): 1.05 | relative viability ([3]; first compound 0.01 µM): 0.873 | relative viability ([3]; first compound 0.03162 µM): 0.955 | relative viability ([3]; first compound 0.1 µM): 1.02 | relative viability ([3]; first compound 0.3162 µM): 0.956 | relative viability ([3]; first compound 1 µM): 1.02 | relative viability ([4]; first compound 0.01 µM): 0.757 | relative viability ([4]; first compound 0.03162 µM): 0.796 | relative viability ([4]; first compound 0.1 µM): 0.867 | relative viability ([4]; first compound 0.3162 µM): 0.903 | relative viability ([4]; first compound 1 µM): 0.814

EPLC-272H
relative viability ([1]; first compound 0.08 µM): 0.294 | relative viability ([1]; first compound 0.253 µM): 0.206 | relative viability ([1]; first compound 0.8 µM): 0.248 | relative viability ([1]; first compound 2.53 µM): 0.313 | relative viability ([1]; first compound 8 µM): 0.51 | relative viability ([2]; first compound 0.01 µM): 0.97 | relative viability ([2]; first compound 0.03162 µM): 0.85 | relative viability ([2]; first compound 0.1 µM): 0.917 | relative viability ([2]; first compound 0.3162 µM): 1.16 | relative viability ([2]; first compound 1 µM): 0.839 | relative viability ([3]; first compound 0.01 µM): 0.63 | relative viability ([3]; first compound 0.03162 µM): 0.64 | relative viability ([3]; first compound 0.1 µM): 0.669 | relative viability ([3]; first compound 0.3162 µM): 0.875 | relative viability ([3]; first compound 1 µM): 0.645 | relative viability ([4]; first compound 0.01 µM): 1.08 | relative viability ([4]; first compound 0.03162 µM): 1.26 | relative viability ([4]; first compound 0.1 µM): 1.19 | relative viability ([4]; first compound 0.3162 µM): 1.18 | relative viability ([4]; first compound 1 µM): 1.01

H3255
relative viability ([1]; first compound 0.08 µM): 0.627 | relative viability ([1]; first compound 0.253 µM): 0.624 | relative viability ([1]; first compound 0.8 µM): 0.614 | relative viability ([1]; first compound 2.53 µM): 0.599 | relative viability ([1]; first compound 8 µM): 0.6 | relative viability ([2]; first compound 0.03162 µM): 0.858 | relative viability ([2]; first compound 0.1 µM): 0.601 | relative viability ([2]; first compound 0.3162 µM): 0.459 | relative viability ([2]; first compound 1 µM): 0.755 | relative viability ([3]; first compound 0.01 µM): 0.745 | relative viability ([3]; first compound 0.03162 µM): 0.922 | relative viability ([3]; first compound 0.1 µM): 0.648 | relative viability ([3]; first compound 0.3162 µM): 0.934 | relative viability ([3]; first compound 1 µM): 0.748 | relative viability ([4]; first compound 0.01 µM): 0.679 | relative viability ([4]; first compound 0.03162 µM): 0.844 | relative viability ([4]; first compound 0.1 µM): 0.837 | relative viability ([4]; first compound 0.3162 µM): 0.977 | relative viability ([4]; first compound 1 µM): 0.936

HARA
relative viability ([1]; first compound 0.08 µM): 0.112 | relative viability ([1]; first compound 0.253 µM): 0.101 | relative viability ([1]; first compound 0.8 µM): 0.104 | relative viability ([1]; first compound 2.53 µM): 0.104 | relative viability ([1]; first compound 8 µM): 0.133 | relative viability ([2]; first compound 0.01 µM): 1.05 | relative viability ([2]; first compound 0.03162 µM): 1.09 | relative viability ([2]; first compound 0.1 µM): 1.18 | relative viability ([2]; first compound 0.3162 µM): 1.17 | relative viability ([2]; first compound 1 µM): 1.04 | relative viability ([3]; first compound 0.03162 µM): 0.795 | relative viability ([3]; first compound 0.1 µM): 0.913 | relative viability ([3]; first compound 0.3162 µM): 0.437 | relative viability ([3]; first compound 1 µM): 0.819 | relative viability ([4]; first compound 0.01 µM): 0.894 | relative viability ([4]; first compound 0.03162 µM): 1.02 | relative viability ([4]; first compound 0.1 µM): 1.08 | relative viability ([4]; first compound 0.3162 µM): 0.917 | relative viability ([4]; first compound 1 µM): 1.06

HCC-15
relative viability ([1]; first compound 0.08 µM): 0.413 | relative viability ([1]; first compound 0.253 µM): 0.443 | relative viability ([1]; first compound 0.8 µM): 0.304 | relative viability ([1]; first compound 2.53 µM): 0.385 | relative viability ([1]; first compound 8 µM): 0.298 | relative viability ([2]; first compound 0.01 µM): 0.714 | relative viability ([2]; first compound 0.03162 µM): 1.09 | relative viability ([2]; first compound 0.1 µM): 0.847 | relative viability ([2]; first compound 0.3162 µM): 1.21 | relative viability ([2]; first compound 1 µM): 1.04 | relative viability ([3]; first compound 0.01 µM): 0.989 | relative viability ([3]; first compound 0.03162 µM): 0.949 | relative viability ([3]; first compound 0.1 µM): 1.02 | relative viability ([3]; first compound 0.3162 µM): 1.05 | relative viability ([3]; first compound 1 µM): 0.983 | relative viability ([4]; first compound 0.01 µM): 0.8 | relative viability ([4]; first compound 0.03162 µM): 0.826 | relative viability ([4]; first compound 0.1 µM): 0.941 | relative viability ([4]; first compound 0.3162 µM): 0.863 | relative viability ([4]; first compound 1 µM): 0.952

HCC-44
relative viability ([1]; first compound 0.08 µM): 0.743 | relative viability ([1]; first compound 0.253 µM): 0.782 | relative viability ([1]; first compound 0.8 µM): 0.857 | relative viability ([1]; first compound 2.53 µM): 0.676 | relative viability ([1]; first compound 8 µM): 0.795 | relative viability ([2]; first compound 0.01 µM): 0.765 | relative viability ([2]; first compound 0.03162 µM): 0.778 | relative viability ([2]; first compound 0.1 µM): 0.854 | relative viability ([2]; first compound 0.3162 µM): 0.773 | relative viability ([2]; first compound 1 µM): 0.857 | relative viability ([4]; first compound 0.01 µM): 0.567 | relative viability ([4]; first compound 0.03162 µM): 0.487 | relative viability ([4]; first compound 0.1 µM): 0.648 | relative viability ([4]; first compound 0.3162 µM): 0.568 | relative viability ([4]; first compound 1 µM): 0.666
